Source: patent US20110178072A1, “STEREOSPECIFICITY OF METHYLSULFINYL REDUCTION” (priority 2008, published 2011)

Test system: ATF3
Test: Western blot analysis of ATF3 in SK-Hep1 cells grown on Met and Met sulfoxide media
Format: cell-based, human
Conditions: 72 hours, compared with cells on Met or Met-SO
Description: Analysis of SK-Hep1 and fRMsr-transfected SK-Hep1 cells—SK-Hep1 and fRMsr-transfected SK-Hep1 cells were plated in 6-well plates at 7.5×10^4 cells/well in regular DMEM medium. The medium was changed to Met-free DMEM supplemented with either Met or individual Met sulfoxides at 24 hours after plating. Cells were then collected every 24 hours until 96 hours. Protein concentration was measured by the Bradford assay and the samples were probed by standard immunoblot assays with polyclonal MsrA (kindly provided by Bertrand Friguet), cystathionine beta synthase (CBS) (kindly provided by Ruma Banerjee), and activating transcription factor 3 (ATF3) (Santa Cruz Biotechnology) antibodies.

C[S@@+]([O-])CC[C@H](N)C(=O)O [Met-RO, methionine-R-sulfoxide] was tested. Which “Expression levels of ATF3” value did it give?
Its value is “low expression levels of ATF3”.
